Results published in ChEMBL document CHEMBL2021836, “Medicinal chemistry approaches to avoid aldehyde oxidase metabolism” (Bioorg Med Chem Lett, 2012).

Experiments:
[1] = target: T1, Toll-like receptor 7 (Homo sapiens) (UniProt Q9NYK1); test: Agonist activity at human TLR7 expressed in human PBMCs assessed as reduction in HCV replicon level after 48 hrs by Bright Glo luciferase reporter gene assay; format: functional
T1 sequence (whole entry): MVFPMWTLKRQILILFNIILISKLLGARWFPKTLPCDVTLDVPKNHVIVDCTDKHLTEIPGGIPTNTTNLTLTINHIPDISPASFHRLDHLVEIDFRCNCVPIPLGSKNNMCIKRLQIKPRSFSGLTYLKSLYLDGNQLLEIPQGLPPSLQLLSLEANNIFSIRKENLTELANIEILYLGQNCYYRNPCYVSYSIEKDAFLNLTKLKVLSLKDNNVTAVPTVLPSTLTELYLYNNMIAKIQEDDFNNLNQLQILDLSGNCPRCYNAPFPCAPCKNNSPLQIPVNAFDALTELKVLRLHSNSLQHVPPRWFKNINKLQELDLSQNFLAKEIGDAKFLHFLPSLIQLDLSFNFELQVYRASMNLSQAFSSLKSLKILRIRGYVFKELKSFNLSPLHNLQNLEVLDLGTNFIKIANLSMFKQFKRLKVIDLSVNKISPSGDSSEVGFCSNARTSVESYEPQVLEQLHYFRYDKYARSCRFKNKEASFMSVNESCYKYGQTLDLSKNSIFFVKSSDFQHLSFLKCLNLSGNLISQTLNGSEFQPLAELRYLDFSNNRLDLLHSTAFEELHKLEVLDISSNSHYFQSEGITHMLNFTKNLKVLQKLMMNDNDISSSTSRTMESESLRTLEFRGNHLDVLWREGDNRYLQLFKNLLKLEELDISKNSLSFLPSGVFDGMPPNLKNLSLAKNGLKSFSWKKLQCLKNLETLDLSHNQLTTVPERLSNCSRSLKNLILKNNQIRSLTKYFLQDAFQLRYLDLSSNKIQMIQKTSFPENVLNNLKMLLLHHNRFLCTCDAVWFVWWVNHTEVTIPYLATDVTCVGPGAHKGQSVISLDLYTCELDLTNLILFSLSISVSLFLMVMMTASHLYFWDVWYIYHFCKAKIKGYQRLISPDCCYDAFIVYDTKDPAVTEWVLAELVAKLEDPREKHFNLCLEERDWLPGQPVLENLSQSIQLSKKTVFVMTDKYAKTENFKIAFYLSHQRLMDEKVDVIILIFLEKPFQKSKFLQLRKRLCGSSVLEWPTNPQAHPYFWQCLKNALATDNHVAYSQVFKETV

[2] = Intrinsic clearance in rat cytosol after 45 mins by LC/MS analysis; format: ADME
[3] = Intrinsic clearance in rat liver microsomes; format: ADME, Microsome; details: read-out: CLH
[4] = Intrinsic clearance in human liver microsomes; format: ADME, Microsome; details: read-out: CLH
[5] = Intrinsic clearance in human cytosol after 45 mins by LC/MS analysis; format: ADME

Row | SMILES | Activity [1] [nM] | microsomal CLint [2] [µL/min/mg] | microsomal CLint [3] [µL/min/mg] | microsomal CLint [4] [µL/min/mg] | microsomal CLint [5] [µL/min/mg]
1 | Nc1nc(C(F)(F)F)cc2c1[nH]c(=O)n2Cc1ccc(NCC2CC2)nc1 | 122 | – | – | – | –
2 | CCc1coc(-c2cc3c([nH]c(=O)n3Cc3ccc(C)nc3)c(N)n2)n1 | 116 | – | – | – | –
3 | Nc1nc(C(F)(F)F)cc2c1[nH]c(=O)n2Cc1ccc(N2CCOCC2)nc1 | 32 | – | – | – | –
4 | Cc1nc(Cn2c(=O)[nH]c3c(N)nc(C(F)(F)F)cc32)cs1 | – | < 1 | < 10 | < 7 | < 1
5 | COc1ccc(Cn2c(=O)[nH]c3c(N)nc(C(F)(F)F)cc32)cn1 | 74 | – | – | – | –
6 | Cc1cc(Cn2c(=O)[nH]c3c(N)nc(C(F)(F)F)cc32)no1 | – | < 1 | < 9 | < 8 | < 1

More lines, now with the values ahead:

Row | Activity [1] [nM] | microsomal CLint [2] [µL/min/mg] | microsomal CLint [3] [µL/min/mg] | microsomal CLint [4] [µL/min/mg] | microsomal CLint [5] [µL/min/mg] | SMILES
7 | 75 | – | – | – | – | Nc1nc(C(F)(F)F)cc2c1[nH]c(=O)n2Cc1ccc(C(F)(F)F)nc1
8 | 43 | – | – | – | – | Nc1ccc(Cn2c(=O)[nH]c3c(N)nc(C(F)(F)F)cc32)cn1
9 | – | < 1 | < 10 | < 8 | < 1 | Cc1nc(Cn2c(=O)[nH]c3c(N)nc(C(F)(F)F)cc32)co1
